Values joined by “and” are separate entries in the source; they are usually repeats but may differ in a detail not shown here. Identical values can stand only once.
Columns and labels:
mouse TTR gene = test: In vivo editing in mouse liver, sgRNA targeting TTR (G282 or G502), % indel by NGS; set-up: species or system CD-1 female mice; conditions: guide G502, Experiment 105
Method in brief: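 Female CD-1 mice, 6–10 weeks, given a single i.v. tail-vein dose of LNPs carrying Cas9 mRNA plus TTR sgRNA (G282 or G502), at several dose levels. Liver collected at 6 or 7 days; percent indels = reads with insertions or deletions over total reads, by amplicon NGS.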

mouse B2M gene [1] = test: In vivo editing in mouse bone marrow, G650 sgRNA, % indel by NGS; set-up: species or system CD-1 female mice; conditions: G650, i.v. dose 1 mg/kg, experiment 108
Procedure: [Worded in the source for another target; this target is reported under the same test.] (§1) In brief, to quantitatively determine the efficiency of editing at the target location in the genome, genomic DNA was isolated and deep sequencing was utilized to identify the presence of insertions and deletions introduced by gene editing.
(§2) PCR primers were designed around the target site (e.g., within B2M), and the genomic area of interest was amplified. Additional PCR was performed according to the manufacturer's protocols (Illumina) to add the necessary chemistry for sequencing. The amplicons were sequenced on an Illumina MiSeq instrument. The reads were aligned to the mouse or rat reference genome (e.g., GRCm38) after eliminating those having low quality scores. The resulting files containing the reads were mapped to the reference genome (BAM files), where reads that overlapped the target region of interest were selected and the number of wild type reads versus the number of reads which contain an insertion, substitution, or deletion was calculated.
(§3) The editing percentage (e.g., the “indel efficiency” or “percent indels”) was defined as the total number of sequence reads with insertions or deletions over the total number of sequence reads, including wild type.
The in vivo delivery to liver, spleen, and bone marrow was assessed by measuring editing efficiency for materials delivered with formulations including various amine lipid compounds. […]

Transthyretin (TTR) [2] = test: Serum TTR ELISA in mice after LNP dosing; type: in vivo, CD-1 female mice
Method in brief: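 Serum mouse TTR was quantified by ELISA at 10,000-fold dilution for 0.1 mg/kg and 10,000/2,500-fold for 0.3 mg/kg. Samples came from female CD-1 mice (6–10 weeks) killed 6 or 7 days after a single intravenous LNP dose, usually 0.1 mg/kg.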

mouse B2M gene [3] = test: In vivo editing in mouse liver, sgRNA targeting B2M (G650), % indel by NGS; set-up: species or system CD-1 female mice; conditions: for Editing Mean % Indel: mouse liver, guide G650, Experiment 104; for Liver editing (%): mouse, experiment 108
Procedure: CD-1 female mice ranging from 6-10 weeks of age were used in each study. Animals were weighed and grouped according to body weight for preparing dosing solutions based on group average weight. LNPs were dosed via the lateral tail vein in a volume of 0.2 mL per animal (approximately 10 mL per kilogram body weight). The animals were periodically observed for adverse effects for at least 24 hours post dose. For studies measuring in vivo editing in liver, CD-1 female mice were dosed at 0.1 mg/kg unless otherwise noted. Animals were euthanized at 6 or 7 days by ex sanguination via cardiac puncture under isoflurane anesthesia. Liver tissue was collected from each animal for DNA extraction and analysis. Blood was collected into serum separator tubes or into tubes containing buffered sodium citrate for plasma as described herein. Cohorts of mice were measured for editing by Next-Generation Sequencing (NGS).
as §1, §2, §3
We assessed in vivo editing efficiency for materials delivered with formulations including various amine lipid compounds. Editing was measured using either G282 (SEQ ID No: 1) which targets the mouse TTR gene or G650 (SEQ ID No. 2) which targets the mouse B2M gene. Lipids described above were assessed for efficacy through in vivo editing experiments. LNPs were formulated at a 1:1 or 1:1.3 w/w ratio of sgRNA to Cas9 mRNA, and at an N/P ratio of about 6. Molar concentrations of lipids in the lipid component of the LNPs are used at mol % amine lipid/DSPC/cholesterol/PEG-2k-DMG of 50/9/38/3. The final LNPs were characterized to determine the encapsulation efficiency, polydispersity index, and average particle size according to the analytical methods provided above. Analysis of average particle size, polydispersity (PDI), total RNA content and encapsulation efficiency of RNA are shown in Table 2.
Alternatively, Cas9 mRNA of Example 120 was formulated as LNPs with an sgRNA targeting B2M (G650, SEQ ID NO: 2) These LNPs were formulated at a w/w ratio of a sgRNA and Cas9 mRNA as indicated in Table 4. The LNPs were formulated using the cross flow procedure with lipid molar compositions of mol % amine lipid/DSPC/cholesterol/PEG-2k-DMG of 50/9/38/3 and an N/P ratio of 6.0. […]
CD-1 female mice were dosed i.v. at 0.1, 0.3, or 1 mg/kg and assessed for editing in liver, spleen, and bone marrow.

Transthyretin (TTR) [4] = test: Serum TTR measurement in rats after LNP dosing; type: in vivo, Sprague Dawley female rats; conditions: Experiment 109; for Serum TTR % TSS: rat serum TTR relative to TSS control; for Serum TTR: rat serum, G534 sgRNA + Cas9 mRNA LNP

## CCCCC/C=C\C/C=C\CCCCCCCC(=O)OCC(COC(=O)CCC(OCCCCCCCC)OCCCCCCCC)COC(=O)OCCCN(CC)CC (centres unmarked) [Compound 1, 3-((4,4-bis(octyloxy)butanoyl)oxy)-2-((((3-(diethylamino)propoxy)carbonyl)oxy)methyl)propyl (9Z,12Z)-octadeca-9,12-dienoate, reference compound]
Mouse TTR gene; LNP i.v. 0.03 mg/kg
  Editing Mean % Indel: 9.24%
Mouse TTR gene; LNP i.v. 0.1 mg/kg
  Editing Mean % Indel: 47.62%
Mouse B2M gene [1]
  % Editing in BM: 2.66%
Transthyretin (TTR) [2]; mouse serum TTR relative to TSS control, guide G502, i.v. 0.1 mg/kg, 0.1 mg/kg
  Serum TTR % TSS: 53.7% and 37.8%
Transthyretin (TTR) [2]; mouse serum, guide G502, i.v. 0.1 mg/kg, 0.1 mg/kg
  Serum TTR: 593.76 µg/mL and 442 µg/mL
Transthyretin (TTR) [2]; mouse, LNP i.v. 0.03 mg/kg, guide G502, Experiment 105
  Serum TTR: 931 µg/mL
Transthyretin (TTR) [2]; mouse, LNP i.v. 0.03 mg/kg, guide G502, Experiment 105, relative to TSS control
  Serum TTR % TSS: 85%
Transthyretin (TTR) [2]; mouse, LNP i.v. 0.1 mg/kg, guide G282, Experiments 101-103, relative to TSS control, 0.1 mg/kg
  Serum TTR % TSS: 79% and 54% and 76%
Transthyretin (TTR) [2]; mouse, LNP i.v. 0.1 mg/kg, guide G502, Experiment 105
  Serum TTR: 294 µg/mL
Transthyretin (TTR) [2]; mouse, LNP i.v. 0.1 mg/kg, guide G502, Experiment 105, relative to TSS control
  Serum TTR % TSS: 27%
Transthyretin (TTR) [2]; mouse, LNP i.v. 0.3 mg/kg, guide G282, Experiments 101-103, relative to TSS control, 0.3 mg/kg
  Serum TTR % TSS: 20% and 13%
Mouse B2M gene [3]; LNP i.v. 0.1 mg/kg
  Editing Mean % Indel: 17.8%
Mouse B2M gene [3]; LNP i.v. 0.3 mg/kg
  Editing Mean % Indel: 50.3%
Mouse B2M gene [3]; G650, i.v. dose 0.1 mg/kg
  Liver editing (%): 23.74%
Mouse B2M gene [3]; G650, i.v. dose 0.3 mg/kg
  Liver editing (%): 58.48%
Mouse B2M gene [3]; G650, i.v. dose 1 mg/kg
  Liver editing (%): 73.6%
Transthyretin (TTR) [4]; G534, i.v. 0.1 mg/kg
  Serum TTR % TSS: 56.6 % TSS
Transthyretin (TTR) [4]; G534, i.v. 0.3 mg/kg
  Serum TTR % TSS: 7.1 % TSS
Transthyretin (TTR) [4]; i.v. 0.1 mg/kg
  Serum TTR: 916.9 µg/mL
Transthyretin (TTR) [4]; i.v. 0.3 mg/kg
  Serum TTR: 114.3 µg/mL

— US20220402862A1 (Intellia Therapeutics, Inc., priority 2019, published 2022)
